Measurements: PubChem BioAssay (NCI)
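Where inhibition never reached the appropriate level, the endpoint shown equals the highest concentration tested. Otherwise, values were interpolated linearly from a five-concentration, 48-hour dose response in 96-well plates. TGI is the concentration that stops growth completely.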

Key:
Experiment in all cases: NCI tumour cell line growth inhibition, 48 h
786-0 renal = system: 786-0 renal
A549 NSCLC = system: A549 NSCLC
ACHN renal = system: ACHN renal
BT-549 breast = system: BT-549 breast
CAKI-1 renal = system: CAKI-1 renal
CCRF-CEM leukemia = system: CCRF-CEM leukemia
COLO 205 colon = system: COLO 205 colon
DU-145 prostate = system: DU-145 prostate
EKVX NSCLC = system: EKVX NSCLC
HCT-116 colon = system: HCT-116 colon
HCT-15 colon = system: HCT-15 colon
HL-60(TB) leukemia = system: HL-60(TB) leukemia
HOP-62 NSCLC = system: HOP-62 NSCLC
HOP-92 NSCLC = system: HOP-92 NSCLC
HT29 colon = system: HT29 colon
K-562 leukemia = system: K-562 leukemia
KM12 colon = system: KM12 colon
LOX IMVI melanoma = system: LOX IMVI melanoma
M14 melanoma = system: M14 melanoma
MALME-3M melanoma = system: MALME-3M melanoma
MCF7 breast = system: MCF7 breast
MDA-MB-231 breast = system: MDA-MB-231 breast
MDA-MB-435 = system: MDA-MB-435
MDA-N = system: MDA-N
MOLT-4 leukemia = system: MOLT-4 leukemia
NCI-H23 lung = system: NCI-H23 lung
NCI-H460 lung = system: NCI-H460 lung
NCI/ADR-RES ovarian = system: NCI/ADR-RES ovarian
OVCAR-3 ovarian = system: OVCAR-3 ovarian
OVCAR-4 ovarian = system: OVCAR-4 ovarian
OVCAR-5 ovarian = system: OVCAR-5 ovarian
OVCAR-8 ovarian = system: OVCAR-8 ovarian
PC-3 prostate = system: PC-3 prostate
RPMI-8226 leukemia = system: RPMI-8226 leukemia
SF-268 CNS = system: SF-268 CNS
SF-295 CNS = system: SF-295 CNS
SF-539 CNS = system: SF-539 CNS
SK-MEL-28 melanoma = system: SK-MEL-28 melanoma
SK-MEL-5 melanoma = system: SK-MEL-5 melanoma
SK-OV-3 ovarian = system: SK-OV-3 ovarian
SN12C renal = system: SN12C renal
SNB-19 CNS = system: SNB-19 CNS
SR leukemia = system: SR leukemia
SW-620 colon = system: SW-620 colon
T-47D breast = system: T-47D breast
TK-10 renal = system: TK-10 renal
U251 CNS = system: U251 CNS
UACC-257 melanoma = system: UACC-257 melanoma
UACC-62 melanoma = system: UACC-62 melanoma
A498 renal = system: A498 renal
HCC-2998 colon = system: HCC-2998 colon
IGROV1 ovarian = system: IGROV1 ovarian
NCI-H226 lung = system: NCI-H226 lung
NCI-H522 lung = system: NCI-H522 lung
RXF 393 renal = system: RXF 393 renal
SK-MEL-2 melanoma = system: SK-MEL-2 melanoma
UO-31 renal = system: UO-31 renal

Q: For `Nc1ccccc1OCc1cc(=O)c(OCc2ccccc2)co1`, which TGI (786-0 renal) is on record?
A: 76.5 µM

Q: What about the TGI (A549 NSCLC) of the same molecule?
A: > 100 µM

Q: What about the TGI (ACHN renal) of the same molecule?
A: > 100 µM

Q: What about the TGI (BT-549 breast) of the same molecule?
A: > 100 µM

Q: And the TGI (CAKI-1 renal)?
A: > 100 µM

Q: And the TGI (CCRF-CEM leukemia)?
A: > 100 µM

Q: What about the TGI (COLO 205 colon) of the same molecule?
A: 44.9 µM

Q: What about the TGI (DU-145 prostate) of the same molecule?
A: > 100 µM

Q: What about the TGI (EKVX NSCLC) of the same molecule?
A: > 100 µM

Q: What about the TGI (HCT-116 colon) of the same molecule?
A: > 100 µM

Q: What about the TGI (HCT-15 colon) of the same molecule?
A: > 100 µM

Q: What about the TGI (HL-60(TB) leukemia) of the same molecule?
A: > 100 µM

Q: What about the TGI (HOP-62 NSCLC) of the same molecule?
A: > 100 µM

Q: What about the TGI (HOP-92 NSCLC) of the same molecule?
A: 36.4 µM

Q: And the TGI (HT29 colon)?
A: > 100 µM

Q: What about the TGI (K-562 leukemia) of the same molecule?
A: > 100 µM

Q: And the TGI (KM12 colon)?
A: > 100 µM

Q: And the TGI (LOX IMVI melanoma)?
A: > 100 µM

Q: What about the TGI (M14 melanoma) of the same molecule?
A: > 100 µM

Q: And the TGI (MALME-3M melanoma)?
A: > 100 µM

Q: And the TGI (MCF7 breast)?
A: 89 µM

Q: And the TGI (MDA-MB-231 breast)?
A: 55.8 µM

Q: What about the TGI (MDA-MB-435) of the same molecule?
A: > 100 µM

Q: And the TGI (MDA-N)?
A: > 100 µM

Q: What about the TGI (MOLT-4 leukemia) of the same molecule?
A: > 100 µM

Q: What about the TGI (NCI-H23 lung) of the same molecule?
A: > 100 µM

Q: And the TGI (NCI-H460 lung)?
A: > 100 µM

Q: What about the TGI (NCI/ADR-RES ovarian) of the same molecule?
A: > 100 µM

Q: And the TGI (OVCAR-3 ovarian)?
A: > 100 µM

Q: And the TGI (OVCAR-4 ovarian)?
A: > 100 µM

Q: What about the TGI (OVCAR-5 ovarian) of the same molecule?
A: > 100 µM

Q: And the TGI (OVCAR-8 ovarian)?
A: > 100 µM

Q: What about the TGI (PC-3 prostate) of the same molecule?
A: > 100 µM

Q: And the TGI (RPMI-8226 leukemia)?
A: > 100 µM

Q: What about the TGI (SF-268 CNS) of the same molecule?
A: > 100 µM

Q: What about the TGI (SF-295 CNS) of the same molecule?
A: 95.1 µM

Q: What about the TGI (SF-539 CNS) of the same molecule?
A: 65.1 µM

Q: What about the TGI (SK-MEL-28 melanoma) of the same molecule?
A: > 100 µM

Q: What about the TGI (SK-MEL-5 melanoma) of the same molecule?
A: > 100 µM

Q: And the TGI (SK-OV-3 ovarian)?
A: 83.7 µM

Q: What about the TGI (SN12C renal) of the same molecule?
A: 0.823 µM

Q: And the TGI (SNB-19 CNS)?
A: > 100 µM

Q: What about the TGI (SR leukemia) of the same molecule?
A: > 100 µM

Q: What about the TGI (SW-620 colon) of the same molecule?
A: > 100 µM

Q: What about the TGI (T-47D breast) of the same molecule?
A: > 100 µM

Q: And the TGI (TK-10 renal)?
A: 61.2 µM

Q: What about the TGI (U251 CNS) of the same molecule?
A: > 100 µM

Q: And the TGI (UACC-257 melanoma)?
A: 81.7 µM

Q: What about the TGI (UACC-62 melanoma) of the same molecule?
A: 4.49 µM

Q: How did the TGI (786-0 renal) turn out when `CN(C)/C=C/c1ccncc1` was run?
A: > 100 µM

Q: And the TGI (A498 renal)?
A: > 100 µM

Q: What about the TGI (A549 NSCLC) of the same molecule?
A: > 100 µM

Q: And the TGI (ACHN renal)?
A: > 100 µM

Q: And the TGI (BT-549 breast)?
A: > 100 µM

Q: What about the TGI (CAKI-1 renal) of the same molecule?
A: > 100 µM

Q: What about the TGI (CCRF-CEM leukemia) of the same molecule?
A: > 100 µM

Q: And the TGI (COLO 205 colon)?
A: > 100 µM

Q: And the TGI (DU-145 prostate)?
A: > 100 µM

Q: And the TGI (EKVX NSCLC)?
A: > 100 µM

Q: What about the TGI (HCC-2998 colon) of the same molecule?
A: > 100 µM

Q: What about the TGI (HCT-116 colon) of the same molecule?
A: > 100 µM

Q: What about the TGI (HCT-15 colon) of the same molecule?
A: > 100 µM

Q: And the TGI (HOP-62 NSCLC)?
A: > 100 µM

Q: And the TGI (HOP-92 NSCLC)?
A: > 100 µM

Q: And the TGI (HT29 colon)?
A: > 100 µM

Q: And the TGI (IGROV1 ovarian)?
A: > 100 µM

Q: What about the TGI (K-562 leukemia) of the same molecule?
A: > 100 µM

Q: And the TGI (KM12 colon)?
A: > 100 µM

Q: What about the TGI (LOX IMVI melanoma) of the same molecule?
A: > 100 µM

Q: And the TGI (M14 melanoma)?
A: > 100 µM

Q: And the TGI (MALME-3M melanoma)?
A: > 100 µM

Q: And the TGI (MCF7 breast)?
A: > 100 µM

Q: And the TGI (MDA-MB-231 breast)?
A: > 100 µM

Q: And the TGI (MDA-MB-435)?
A: > 100 µM

Q: What about the TGI (MDA-N) of the same molecule?
A: > 100 µM

Q: And the TGI (MOLT-4 leukemia)?
A: > 100 µM

Q: What about the TGI (NCI-H226 lung) of the same molecule?
A: > 100 µM

Q: And the TGI (NCI-H23 lung)?
A: > 100 µM

Q: What about the TGI (NCI-H460 lung) of the same molecule?
A: > 100 µM

Q: What about the TGI (NCI-H522 lung) of the same molecule?
A: > 100 µM

Q: And the TGI (NCI/ADR-RES ovarian)?
A: > 100 µM

Q: And the TGI (OVCAR-3 ovarian)?
A: > 100 µM

Q: And the TGI (OVCAR-4 ovarian)?
A: > 100 µM

Q: And the TGI (OVCAR-5 ovarian)?
A: > 100 µM

Q: What about the TGI (OVCAR-8 ovarian) of the same molecule?
A: > 100 µM

Q: And the TGI (PC-3 prostate)?
A: > 100 µM

Q: And the TGI (RPMI-8226 leukemia)?
A: > 100 µM

Q: What about the TGI (RXF 393 renal) of the same molecule?
A: > 100 µM

Q: What about the TGI (SF-268 CNS) of the same molecule?
A: > 100 µM

Q: And the TGI (SF-295 CNS)?
A: > 100 µM

Q: And the TGI (SF-539 CNS)?
A: > 100 µM

Q: What about the TGI (SK-MEL-2 melanoma) of the same molecule?
A: > 100 µM

Q: And the TGI (SK-MEL-28 melanoma)?
A: > 100 µM

Q: And the TGI (SK-MEL-5 melanoma)?
A: > 100 µM

Q: What about the TGI (SK-OV-3 ovarian) of the same molecule?
A: > 100 µM

Q: What about the TGI (SN12C renal) of the same molecule?
A: > 100 µM

Q: What about the TGI (SNB-19 CNS) of the same molecule?
A: > 100 µM

Q: And the TGI (SR leukemia)?
A: > 100 µM

Q: What about the TGI (SW-620 colon) of the same molecule?
A: > 100 µM

Q: And the TGI (T-47D breast)?
A: > 100 µM

Q: What about the TGI (TK-10 renal) of the same molecule?
A: > 100 µM

Q: What about the TGI (U251 CNS) of the same molecule?
A: > 100 µM

Q: And the TGI (UACC-257 melanoma)?
A: > 100 µM

Q: What about the TGI (UACC-62 melanoma) of the same molecule?
A: > 100 µM

Q: What about the TGI (UO-31 renal) of the same molecule?
A: > 100 µM
